The values below are quoted from earlier work in US8091801B2, “Generation of therapeutic microfoam” (BTG International Limited, priority 1999, dated 2012).

For this series the following is noted: in water at STP.

As for `O=O` [Oxygen], the “Mole Fraction Solubility” value was 2.3 10^−5. With `[He]` [Helium], the “Mole Fraction Solubility” value is reported as 0.7 10^−5.

In the case of `[N-]=[N+]=O` [Nitrous oxide], the “Mole Fraction Solubility” value is on record as 43.7 10^−5.
